Assay results published in patent US20200131129A1, “FARNESOID X RECEPTOR AGONISTS AND USES THEREOF” (Metacrine, Inc., priority 2017, published 2020).

Molecular target: T1, hFXR (Homo sapiens, UniProt Q96RI1)
T1 construct: expressed in transfected cells; host or cells: CV-1 cells
T1 sequence (Q96RI1 1-486): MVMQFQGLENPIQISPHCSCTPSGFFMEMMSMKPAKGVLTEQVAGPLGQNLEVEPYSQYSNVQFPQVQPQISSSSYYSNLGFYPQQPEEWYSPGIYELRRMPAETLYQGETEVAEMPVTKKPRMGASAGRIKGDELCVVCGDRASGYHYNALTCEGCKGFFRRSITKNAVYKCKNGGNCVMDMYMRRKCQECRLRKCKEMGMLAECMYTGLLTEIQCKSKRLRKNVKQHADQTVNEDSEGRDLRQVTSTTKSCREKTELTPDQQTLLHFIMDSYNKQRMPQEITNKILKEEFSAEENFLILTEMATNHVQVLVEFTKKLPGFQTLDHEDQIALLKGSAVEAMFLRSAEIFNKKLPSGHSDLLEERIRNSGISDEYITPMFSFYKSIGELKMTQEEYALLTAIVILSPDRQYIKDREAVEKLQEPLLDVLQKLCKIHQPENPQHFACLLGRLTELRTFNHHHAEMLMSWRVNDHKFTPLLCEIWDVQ
T1 sequence (P19793 1-462 partner): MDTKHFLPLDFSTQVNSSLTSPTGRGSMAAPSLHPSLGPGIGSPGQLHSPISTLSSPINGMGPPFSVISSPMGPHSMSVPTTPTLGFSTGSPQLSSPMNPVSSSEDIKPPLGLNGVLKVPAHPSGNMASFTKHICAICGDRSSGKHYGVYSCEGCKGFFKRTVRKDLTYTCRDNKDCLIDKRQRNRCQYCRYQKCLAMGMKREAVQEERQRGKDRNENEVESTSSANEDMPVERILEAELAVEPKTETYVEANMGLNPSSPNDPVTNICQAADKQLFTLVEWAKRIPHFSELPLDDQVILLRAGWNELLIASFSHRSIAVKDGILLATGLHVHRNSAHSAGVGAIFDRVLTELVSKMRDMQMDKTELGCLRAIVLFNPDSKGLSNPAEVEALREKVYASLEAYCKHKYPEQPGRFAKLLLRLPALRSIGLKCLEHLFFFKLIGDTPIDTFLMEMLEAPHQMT
Assay: In Vitro FXR Assay (TK): hFXR/hRXR TK-ECRE-luc reporter in transfected CV-1 cells
Type: cell-based
Settings: CV-1 cells transfected with hFXR, hRXR, 18 hrs incubation, luminescence, maximum efficacy <25% of Fexarmine control also classified as ‘+’
Description: Example B-1: In Vitro FXR Assay (TK)
CV-1 cells were seeded at a density of 2,000,000 cells in a T175 flask with DMEM+10% charcoal double-stripped FBS and incubated at 37° C. in 5% CO2 for 18 h (O/N).
After 18 h of incubation, the medium in the T175 flask was changed with fresh DMEM+10% charcoal super-stripped serum. In a polypropylene tube, 2500 μL OptiMEM (Life Technologies, Cat #31985-062) was combined with expression plasmids for hFXR, hRXR, TK-ECRE-luc and pCMX-YFP. The tube was then briefly vortexed and incubated at room temperature for 5 minutes. Transfection reagent (X-tremeGENE HP from Roche, Cat #06 366 236 001) was added to the OptiMEM/plasmid mixture vortexed and incubated at room temperature for 20 minutes. Following incubation, the transfection reagent/DNA mixture complex was added to cells in the T175 flask and the cells were incubated at 37° C. in 5% CO2 for 18 h (0/N).
Compounds were serially diluted in DMSO and added to transfected CV-1 cells. The cells were then incubated for 18 hrs. The next day cells were lysed and examined for luminescence.

Row | Compound | EC50
1 | COc1ccc([C@H]2CC[C@H](CN(c3cccc(-c4coc(C5CC5)n4)c3)C(=O)[C@H]3CC[C@H](O)CC3)CC2)cc1C#N [Compound 10.11, trans-N-((trans-4-(3-Cyano-4-methoxyphenyl)cyclohexyl)methyl)-N-(3-(2-cyclopropyloxazol-4-yl)phenyl)-4-hydroxycyclohexanecarboxamide] | ≤ 0.5 µM
2 | COc1ccc([C@H]2CC[C@H](CN(c3cccc(C#Cc4cnn(C)n4)c3)C(=O)[C@H]3CC[C@H](O)CC3)CC2)cc1C [Compound 12.01, trans-4-Hydroxy-N-((trans-4-(4-methoxy-3-methylphenyl)cyclohexyl)methyl)-N-(3-((2-methyl-2H-1,2,3-triazol-4-yl)ethynyl)phenyl)cyclohexanecarboxamide] | ≤ 0.5 µM
3 | COc1ccc([C@H]2CC[C@H](CN(c3cccc(-c4cnc(C)o4)c3)C(=O)[C@H]3CC[C@H](O)CC3)CC2)cc1C [Compound 8, trans-4-Hydroxy-N-((trans-4-(4-methoxy-3-methylphenyl)cyclohexyl)methyl)-N-(3-(2-methyloxazol-5-yl)phenyl)cyclohexanecarboxamide] | ≤ 0.5 µM
4 | COc1ccc([C@H]2CC[C@H](CN(c3cccc(C#Cc4ncco4)c3)C(=O)[C@H]3CC[C@H](O)CC3)CC2)cc1C [Compound 11.01, trans-4-Hydroxy-N-((trans-4-(4-methoxy-3-methylphenyl)cyclohexyl)methyl)-N-(3-(oxazol-2-ylethynyl)phenyl)cyclohexanecarboxamide] | ≤ 0.5 µM
5 | COc1ccc([C@H]2CC[C@H](CN(c3cccc(-c4ccsn4)c3)C(=O)[C@H]3CC[C@H](O)CC3)CC2)cc1C [Compound 2.07, trans-4-Hydroxy-N-(3-(isothiazol-3-yl)phenyl)-N-((trans-4-(4-methoxy-3-methylphenyl)cyclohexyl)methyl)cyclohexanecarboxamide] | 0.5 to 1 µM
6 | COc1ccc([C@H]2CC[C@H](CN(c3cccc(-c4cc(C)ns4)c3)C(=O)[C@H]3CC[C@H](O)CC3)CC2)cc1C [Compound 2.06, trans-4-Hydroxy-N-((trans-4-(4-methoxy-3-methylphenyl)cyclohexyl)methyl)-N-(3-(3-methylisothiazol-5-yl)phenyl)cyclohexanecarboxamide] | ≤ 0.5 µM
7 | COc1ccc([C@H]2CC[C@H](CN(c3cccc(-c4nsc(C5CC5)n4)c3)C(=O)[C@H]3CC[C@H](O)CC3)CC2)cc1C [Compound 2.12, trans-N-(3-(5-Cyclopropyl-1,2,4-thiadiazol-3-yl)phenyl)-4-hydroxy-N-((trans-4-(4-methoxy-3-methylphenyl)cyclohexyl)methyl)cyclohexanecarboxamide] | 0.5 to 1 µM
8 | COc1ccc([C@H]2CC[C@H](CN(c3cc(-c4coc(C5CC5)n4)ccn3)C(=O)[C@H]3CC[C@H](O)CC3)CC2)nc1C [Compound 10.09, trans-N-(4-(2-Cyclopropyloxazol-4-yl)pyridine-2-yl)-4-hydroxy-N-((trans-4-(5-methoxy-6-methylpyridin-2-yl)cyclohexyl)methyl) cyclohexanecarboxamide] | ≤ 0.5 µM
9 | COc1ccc([C@H]2CC[C@H](CN(c3cccc(-c4coc(C(C)C)n4)c3)C(=O)[C@H]3CC[C@H](O)CC3)CC2)nc1C#N [Compound 10.20, trans-N-((trans-4-(6-Cyano-5-methoxypyridin-2-yl)cyclohexyl)methyl)-4-hydroxy-N-(3-(2-isopropyloxazol-4-yl)phenyl)cyclohexanecarboxamide] | ≤ 0.5 µM
10 | COc1ccc(-c2cccc(N(C[C@H]3CC[C@H](c4ccc(OC)c(C)c4)CC3)C(=O)[C@H]3CC[C@H](O)CC3)c2)nc1 [Compound 1.03, trans-4-Hydroxy-N-((trans-4-(4-methoxy-3-methylphenyl)cyclohexyl)methyl)-N-(3-(5-methoxypyridin-2-yl)phenyl)cyclohexanecarboxamide] | ≤ 0.5 µM
11 | COc1ccc([C@H]2CC[C@H](CN(c3cccc(-c4nnc(C)s4)c3)C(=O)[C@H]3CC[C@H](O)CC3)CC2)cc1C [Compound 2.04, trans-4-Hydroxy-N-((trans-4-(4-methoxy-3-methylphenyl)cyclohexyl)methyl)-N-(3-(5-methyl-1,3,4-thiadiazol-2-yl)phenyl)cyclohexanecarboxamide] | ≥ 1 µM
12 | COc1ccc([C@H]2CC[C@H](CN(c3cccc(-n4nnc(C)n4)c3)C(=O)[C@H]3CC[C@H](O)CC3)CC2)cc1C [Compound 9.05, trans-4-Hydroxy-N-((trans-4-(4-methoxy-3-methylphenyl)cyclohexyl)methyl)-N-(3-(5-methyl-2H-tetrazol-2-yl)phenyl)cyclohexanecarboxamide] | 0.5 to 1 µM
13 | COc1ccc([C@H]2CC[C@H](CN(c3cccc(-c4nc(C)co4)c3)C(=O)[C@H]3CC[C@H](O)CC3)CC2)cc1C [Compound 9.03, trans-4-Hydroxy-N-((trans-4-(4-methoxy-3-methylphenyl)cyclohexyl)methyl)-N-(3-(4-methyloxazol-2-yl)phenyl)cyclohexanecarboxamide] | ≥ 1 µM
14 | COc1ccc([C@H]2CC[C@H](CN(c3cc(-c4coc(C(C)C)n4)ccn3)C(=O)[C@H]3CC[C@H](O)CC3)CC2)nc1C [Compound 10.17, trans-4-Hydroxy-N-(4-(2-isopropyloxazol-4-yl)pyridine-2-yl)-N-((trans-4-(5-methoxy-6-methylpyridin-2-yl)cyclohexyl)methyl) cyclohexanecarboxamide] | ≤ 0.5 µM
15 | COc1ccc([C@H]2CC[C@H](CN(c3cccc(-n4cnc(C5CC5)n4)c3)C(=O)[C@H]3CC[C@H](O)CC3)CC2)cc1C [Compound 7.01, trans-N-(3-(3-Cyclopropyl-1H-1,2,4-triazol-1-yl)phenyl)-4-hydroxy-N-((trans-4-(4-methoxy-3-methylphenyl)cyclohexyl)methyl)cyclohexanecarboxamide] | ≤ 0.5 µM
16 | COc1ccc([C@H]2CC[C@H](CN(c3cccc(C#Cc4nnc[nH]4)c3)C(=O)[C@H]3CC[C@H](O)CC3)CC2)cc1C [Compound 14, trans-N-(3-((1H-1,2,4-Triazol-3-yl)ethynyl)phenyl)-4-hydroxy-N-((trans-4-(4-methoxy-3-methylphenyl)cyclohexyl)methyl)cyclohexanecarboxamide] | ≤ 0.5 µM
17 | COc1ccc([C@H]2CC[C@H](CN(c3cccc(-c4cc(C5CC5)on4)c3)C(=O)[C@H]3CC[C@H](O)CC3)CC2)cc1C [Compound 9.14, trans-N-(3-(5-Cyclopropylisoxazol-3-yl)phenyl)-4-hydroxy-N-((trans-4-(4-methoxy-3-methylphenyl)cyclohexyl)methyl) cyclohexanecarboxamide] | ≤ 0.5 µM
18 | COc1ccc([C@H]2CC[C@H](CN(c3cccc(-c4coc(C)n4)c3)C(=O)[C@H]3CC[C@H](O)CC3)CC2)cc1C [Compound 9.04, trans-4-Hydroxy-N-((trans-4-(4-methoxy-3-methylphenyl)cyclohexyl)methyl)-N-(3-(2-methyloxazol-4-yl)phenyl)cyclohexanecarboxamide] | ≤ 0.5 µM
19 | COc1ccc([C@H]2CC[C@H](CN(c3cccc(-n4ccc(C)c4)c3)C(=O)[C@H]3CC[C@H](O)CC3)CC2)cc1C [Compound 4] | ≤ 0.5 µM
20 | CN(C)c1ccc([C@H]2CC[C@H](CN(c3cccc(-c4coc(C5CC5)n4)c3)C(=O)[C@H]3CC[C@H](O)CC3)CC2)cn1 [Compound 10.02, trans-N-(3-(2-Cyclopropyloxazol-4-yl)phenyl)-N-((trans-4-(6-(dimethylamino)pyridine-3-yl)cyclohexyl)methyl)-4-hydroxycyclohexanecarboxamide] | ≤ 0.5 µM
21 | COc1ccc([C@H]2CC[C@H](CN(c3cccc(C#Cc4ncn(C)n4)c3)C(=O)[C@H]3CC[C@H](O)CC3)CC2)cc1C [Compound 12, trans-4-Hydroxy-N-((trans-4-(4-methoxy-3-methylphenyl)cyclohexyl)methyl)-N-(3-((1-methyl-1H-1,2,4-triazol-3-yl)ethynyl)phenyl)cyclohexanecarboxamide] | ≤ 0.5 µM
